Data set [1] concerns alpha1 A and alpha1 B adrenoceptors. The note with it: Michel et al.; cited from earlier work.
Data set [2] has as its system smooth muscle originating from the trigone muscle at the base of the bladder. The note with it: trigone smooth muscle preparations; cited from earlier work.
The conditions of data set [3]: cited from earlier work.
For data set [4] the following is noted: in vivo; cited from earlier work.
The subject of data set [5] is rabbit urethral ring tissues. As to conditions: in vitro; cited from earlier work.
Data set [6] relates to rabbit trigone. The note with it: in vitro; cited from earlier work.
For data set [7], the system named is mammalian lower urinary tract. As to conditions: in vivo; cited from earlier work.
The subject of data set [8] is rat bladder strip. As to conditions: WO93/17007; cited from earlier work.
Data set [9] deals with alpha1 adrenergic receptors. The note with it: WO93/17007; cited from earlier work.
The nature of data set [10]: Solubility of Rec 15/2739 free base in various vehicles (Table 2). In kind it is physicochemical. Here is the method:
Table 2 provides the solubility of the free base forms of the alpha blocker Rec 15/2739 in various vehicles. Solubility of free base is indicated as μg per ml of medium. PBS indicates phosphate buffered saline (20 mM phosphate and 0.9% NaCl).

A short description of data set [11]: pKa of alpha blockers (Table 1). The data set is classed as physicochemical. From the text:
However, the solubility improvement largely depends on the choice of solvent, any specific common ion interaction and the size and polarity of the counterion. Often, salts prepared from strong acids are freely soluble in water. […] Suitable alkane- or arenesulfonic acid anions include […], tosylate (para-toluenesulfonate), mesylate (methanesulfonate), napsylate (1-napthalene-2-sulfonate), besylate (benzene sulfonate) and […].

In data set [12] the test system is rabbit prostrate, urethra, and vesical triangle. As to conditions: Honda et al.; cited from earlier work.
The test system of data set [13] is human urethra and vesical triangle. As to conditions: Honda et al.; cited from earlier work.
The test system of data set [14] is guinea pig prostrate, urethra, and vesical triangle. The note with it: Honda et al.; cited from earlier work.

≈ marks a conversion by molar mass, not a printed value. Like-named read-outs stand apart in the source and are kept apart here.

Consider `COc1cc2nc(N(C)CCCNC(=O)C3CCCO3)nc(N)c2cc1OC` (stereo not drawn) [Alfuzosin, N-3-(4-Amino-6,7dimethoxy-2-quinazolinyl) methylamino!propyl!tetrahydro-2-furancarboxamide], for which the “selectivity for alpha1 subtypes” value in data set [1] is given as “lacks any relevant selectivity for alpha1 subtypes”. The “activity in altering phenylephrine induced contractions” value in data set [2] is reported as “shows activity in altering the phenylephrine induced contractions”. Further, the plasma half life in data set [3] (S. Lieto di Priolo et al.) was 4 to 9 h. Also, the mean oral bioavailability in data set [3] (oral, Wilde et al.) is listed as 64%.

Take `COc1cc2nc(N3CCN(C(=O)c4ccco4)CC3)nc(N)c2cc1OC` [Prazosin, reference compound]: the “most common side effect” value in data set [4] is on record as “hypotension”.

Take `COc1cc2nc(N(C)CCCNC(=O)[C@H]3CCCO3)nc(N)c2cc1OC` [R enantiomer]: the “potency in antagonizing phenylephrine induced contraction (R vs S enantiomer)” value in data set [5] and in [6] was “equally potent” in each case.

Consider `COc1ccccc1N1CCN(CCCNC(=O)c2cccc3c(=O)c(C)c(-c4ccccc4)oc23)CC1` [Rec 15/2739, 8(3-4-(2-methoxyphenyl)-1-piperazinyl!-propylcarbamoyl)-3-methyl-4-oxo-2-phenyl-4H-1-benzopyran], for which the toxicity entry in [4] is given as “low toxicity”. The “selectivity for lower urinary tract (urethral contractions vs lowering blood pressure)” value in data set [7] was “substantially more active in antagonizing urethral contractions than in lowering blood pressure”. The “antagonistic effects against contractions induced by potassium chloride” value in [8] is listed as “demonstrate antagonistic effects against contractions of rat bladder strip induced by potassium chloride”. For the same compound, the “affinity and selectivity for alpha1 adrenergic receptors” value in [9] is “has affinity and selectivity for the alpha1 adrenergic receptors”. Besides, the solubility in data set [10] (aqueous buffer, PBS pH 5.2) turned out to be 68 µg/mL (≈ 133 µM); in [10] (aqueous buffer, PBS pH 6.7), 5.2 µg/mL (≈ 10.2 µM); in [10] (saline), 1.5 µg/mL (≈ 2.93 µM). Besides, in data set [11] (read-out: pKa), the pKa stood at 7.

In the case of `COc1cc2nc(N(C)CCCNC(=O)[C@@H]3CCCO3)nc(N)c2cc1OC` [S enantiomer], the “potency in antagonizing phenylephrine induced contraction (R vs S enantiomer)” value in [5] and in data set [6] was “equally potent” throughout.

Take `CCOc1ccccc1OCCNC(C)Cc1ccc(OC)c(S(N)(=O)=O)c1` (stereo not drawn) [Tamsulosin, 5-2-2-(o-Ethoxyphenoxy)-ethyl!amino!propyl!-2-methoxybenzenesulfonamide]: the reduction of contraction result in [12], in data set [13] and in data set [14] was “reduces the contraction” in each case.

The compound `COc1cc2nc(N3CCN(C(=O)C4CCCO4)CC3)nc(N)c2cc1OC` (stereo not drawn) [Terazosin, reference compound] yielded a pKa in data set [11] of 7.1.

The values are drawn from patent publication US5503843A, “Transdermal delivery of alpha adrenoceptor blocking agents” (priority 1994, dated 1996).
